Results on 14 molecules are retold here after PubChem BioAssay (NCI).

Some test systems named below: EKVX NSCLC; HCC-2998 colon; K-562 leukemia; LOX IMVI melanoma; M14 melanoma; OVCAR-4 ovarian; RXF 393 renal; SF-268 CNS; SK-OV-3 ovarian; SR leukemia.
Assay in all cases: NCI anticancer screen, dose series, 48 h

Molecules are shown by their SMILES.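 Briefly, cells in 96-well plates were exposed to five compound concentrations for 48 h, and endpoints were estimated by linear interpolation. At the TGI there is no net growth.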 Bounds are passed on as bounds.

Take `CCOC(=O)C1=CN(C(=O)c2ccccc2)CCC1Cc1ccccc1` (configuration not stated): the TGI is more than 100 µM with EKVX NSCLC; 38.5 µM in the experiment on HCC-2998 colon; 77.3 µM in the experiment on K-562 leukemia; 34.4 µM with LOX IMVI melanoma; 37.1 µM in the experiment with M14 melanoma; more than 100 µM with OVCAR-4 ovarian. The TGI in the experiment with RXF 393 renal was 61.8 µM; with SF-268 CNS, more than 100 µM; with SK-OV-3 ovarian it was more than 100 µM; with SR leukemia it was 37.5 µM.
Turning to `Cc1nn(C(=O)c2ccc(Cl)cc2)c2c1C(c1ccco1)SC(N)=N2` (configuration not stated), the TGI in the experiment with EKVX NSCLC, with HCC-2998 colon, in the experiment with K-562 leukemia, with LOX IMVI melanoma, with M14 melanoma and in the experiment with OVCAR-4 ovarian was more than 10 µM in each case. For the same molecule, the TGI in the experiment on RXF 393 renal, with SF-268 CNS, in the experiment on SK-OV-3 ovarian and in the experiment on SR leukemia was more than 10 µM each time.
As for `Cc1cnc2[nH]c(-c3cccc(Cl)c3)cc(=O)c2c1`, the TGI with EKVX NSCLC is more than 100 µM; in the experiment on LOX IMVI melanoma it was 11.6 µM; with M14 melanoma, more than 100 µM; in the experiment on OVCAR-4 ovarian it was more than 100 µM; in the experiment with RXF 393 renal, 85.5 µM; in the experiment with SF-268 CNS, 34.5 µM. The TGI in the experiment with SK-OV-3 ovarian and in the experiment on SR leukemia was more than 100 µM in each case.
Turning to `COc1c(Cl)c(Cl)c(OC)c2c1C(=O)C=CC2=O`, the TGI in the experiment with EKVX NSCLC is 31.8 µM; in the experiment on HCC-2998 colon, more than 100 µM; in the experiment with K-562 leukemia, 64.4 µM; with LOX IMVI melanoma, 30.2 µM; in the experiment on M14 melanoma it was 43.3 µM; in the experiment on OVCAR-4 ovarian, 28.9 µM. Besides, the TGI in the experiment on RXF 393 renal is 30.9 µM; with SF-268 CNS, 30.6 µM; in the experiment on SK-OV-3 ovarian, more than 100 µM; in the experiment on SR leukemia, 42.9 µM.
Take `O=C1/C(=C2\SCC(=O)N2c2ccccc2)SC(=S)N1c1ccccc1`: the TGI is 82 µM in the experiment on EKVX NSCLC; 62.1 µM with HCC-2998 colon; more than 100 µM in the experiment with K-562 leukemia; more than 100 µM in the experiment on LOX IMVI melanoma; more than 100 µM in the experiment on M14 melanoma; 66.9 µM with OVCAR-4 ovarian. Further, the TGI is more than 100 µM with RXF 393 renal, more than 100 µM in the experiment with SF-268 CNS, 55.2 µM in the experiment on SK-OV-3 ovarian and 29.6 µM with SR leukemia.
Consider `Cc1nc2sccn2c1C(=O)OCCOCCOCCOCCOC(=O)c1c(C)nc2sccn12`, for which the TGI in the experiment with EKVX NSCLC, in the experiment with HCC-2998 colon, with K-562 leukemia, in the experiment on LOX IMVI melanoma, in the experiment with M14 melanoma and with OVCAR-4 ovarian was more than 100 µM each time. For the same molecule, the TGI in the experiment with RXF 393 renal, in the experiment on SF-268 CNS and in the experiment with SR leukemia was more than 100 µM throughout.
Consider `Cc1ccc(C2(c3ccc(C)c(O)c3C)CCN(C)CC2)c(C)c1O`, for which the TGI in the experiment on EKVX NSCLC, in the experiment with K-562 leukemia, in the experiment with LOX IMVI melanoma, in the experiment on M14 melanoma, in the experiment with OVCAR-4 ovarian and in the experiment on RXF 393 renal was more than 100 µM each time. Moreover, the TGI in the experiment with SF-268 CNS and in the experiment with SR leukemia was more than 100 µM throughout.
Consider `O=C1OC(C(O)C(O)C(O)CO)C(O)C1O` (configuration not stated), for which the TGI in the experiment with EKVX NSCLC, with HCC-2998 colon, in the experiment on K-562 leukemia, with LOX IMVI melanoma, with M14 melanoma and in the experiment on OVCAR-4 ovarian was more than 100 µM in each case. Also, the TGI in the experiment on RXF 393 renal, in the experiment with SF-268 CNS, in the experiment with SK-OV-3 ovarian and in the experiment with SR leukemia was more than 100 µM throughout.
Turning to `Clc1ccc(-c2nn3c(C45CC6CC(CC(C6)C4)C5)nnc3s2)cc1`, the TGI in the experiment on EKVX NSCLC, in the experiment with HCC-2998 colon, in the experiment on K-562 leukemia, in the experiment on LOX IMVI melanoma, with M14 melanoma and in the experiment with OVCAR-4 ovarian was more than 100 µM in each case. In addition, the TGI in the experiment on RXF 393 renal, in the experiment on SF-268 CNS, in the experiment with SK-OV-3 ovarian and with SR leukemia was more than 100 µM each time.
`CSc1nc(=O)c(C#N)c(-c2ccccc2)n1C1OC(COC(C)=O)C(OC(C)=O)C(OC(C)=O)C1OC(C)=O` (configuration not stated): the TGI in the experiment on EKVX NSCLC, with HCC-2998 colon, in the experiment on K-562 leukemia, in the experiment on LOX IMVI melanoma, with M14 melanoma and in the experiment with OVCAR-4 ovarian was more than 100 µM each time. The TGI with RXF 393 renal, in the experiment with SF-268 CNS, in the experiment with SK-OV-3 ovarian and in the experiment with SR leukemia was more than 100 µM each time.
Regarding `C=CCc1cccc2cc(C(=O)Nc3nc(C45CC6CC(CC(C6)C4)C5)cs3)c(=O)oc12`, the TGI in the experiment with EKVX NSCLC was more than 100 µM; in the experiment with HCC-2998 colon it was more than 100 µM; with K-562 leukemia, more than 100 µM; in the experiment on LOX IMVI melanoma it was 42.8 µM; in the experiment with OVCAR-4 ovarian it was 51.5 µM; in the experiment on RXF 393 renal, 22.5 µM. For the same molecule, the values for the TGI in the experiment with SF-268 CNS and in the experiment on SR leukemia were 55 µM and more than 100 µM, respectively.
For `COC1=CCC2=C(CCN(C(=O)C3CCC3)C2Cc2ccc(OC)c(O)c2)C1` (configuration not stated), the TGI was 88.9 µM with EKVX NSCLC; 41.3 µM in the experiment with HCC-2998 colon; more than 100 µM in the experiment on K-562 leukemia; more than 100 µM in the experiment on LOX IMVI melanoma; 78.9 µM in the experiment on M14 melanoma; more than 100 µM with OVCAR-4 ovarian. In addition, the TGI with RXF 393 renal is 21.2 µM; in the experiment with SF-268 CNS, more than 100 µM; in the experiment with SK-OV-3 ovarian, 83.5 µM; in the experiment with SR leukemia, more than 100 µM.
For `COc1cc(C2c3cc4c(cc3OC(N3CCOCC3)C2C)OCO4)cc(OC)c1OC(C)=O` (configuration not stated), the TGI in the experiment with EKVX NSCLC was more than 100 µM; in the experiment with HCC-2998 colon it was 50.5 µM; in the experiment with K-562 leukemia, 49.2 µM; in the experiment with LOX IMVI melanoma, more than 100 µM; with M14 melanoma it was more than 56.8 µM; in the experiment on OVCAR-4 ovarian it was more than 100 µM. For the same molecule, the TGI in the experiment on RXF 393 renal is more than 62.1 µM; in the experiment with SF-268 CNS, more than 100 µM; with SK-OV-3 ovarian, more than 100 µM; with SR leukemia it was more than 72 µM.
Consider `COC(=O)c1ccccc1N=Cc1ccc(N(CCC#N)S(=O)(=O)c2ccccc2)cc1`, for which the TGI with EKVX NSCLC, with K-562 leukemia, in the experiment with LOX IMVI melanoma, in the experiment with M14 melanoma, in the experiment with OVCAR-4 ovarian and with RXF 393 renal was more than 100 µM in each case. Moreover, the TGI with SF-268 CNS, with SK-OV-3 ovarian and in the experiment with SR leukemia was more than 100 µM each time.
